This note sets out measurements from patent US20250223297A1, “NOVEL RAPAMYCIN DERIVATIVES” (Novartis AG, priority 2017, published 2025).

The test system of experiment [1] is mTORC1 signaling (pS6 Ser240/244) in MEF TSC1−/− cells. In words: MEF TSC1-/- cell based assay for rapalog potency (pS6). Also on record: species or system mouse. The note with it: 2 h treatment, average from multiple assays. The source says:
Potency of mTOR inhibitors may also be determined using a MEF TSC1−/− cell-based assay. MEF TSC1−/− cells are Mouse Embryonic Fibroblasts deficient in the Tuberous sclerosis protein, TSC1, which negatively regulates mTORC1 signaling. Thus, the deficiency of TSC1 induces constitutive mTORC1 activation, resulting in phosphorylation (activation) of the downstream proteins in the mTORC1 signaling pathways. This cell-based assay is used to measure inhibition (de-phosphorylation) of the mTORC1 signaling components S6 and 4EBP1, by rapalogs or other mTOR inhibitors.
The assay is typically carried out as follows: MEF TSC1−/− cells are plated on Poly-D-lysine coated 384 well Griener clear bottom plates and incubated overnight at 37° C., 5% CO2. […] Cells are fixed with 4% paraformaldehyde for 30 min and washed 5 times with TBS-EDTA followed by immuno-staining with florescent tag labeled antibodies for pS6 and p4EBP1. Nuclei are visualized with Hoechst staining. Cells are imaged using respective florescence channels and the potency of mTOR inhibitors is defined by pS6 IC50 (nM).
Cell-based assay for rapalog potency determination. Rapalog potency was determined using MEF TSC1−/− cell based assay. MEF TSC1−/− cells are Mouse Embryonic Fibroblasts deficient in Tuberous sclerosis protein-TSC1, which negatively regulates mTORC1 signaling and thus display constitutive mTORC1 activation, resulting in phosphorylation (activation) of downstream molecules. This cell-based assay is used to measure inhibition (de-phosphorylation) of S6 and 4EBP1 by rapalogs or other mTOR inhibitors.
MEF TSC1−/− cells were plated on Poly-D-lysine coated 384 well Griener clear bottom plates and incubated overnight at 37° C., 5% CO2. […] Nuclei were visualized with Hoechst (ThermoFisher Scientific #H3570) staining. Cells were imaged (InCell 600) using respective fluorescence channels and the potency of mTOR inhibitors was defined by pS6 IC50 (nM).
In vitro potency of mTOR inhibitors was defined by pS6 IC50 (nM) in MEF TSC1−/− cells.
IC50 values are calculated as the average from multiple assays.

A further experiment has as its target FKBP12 (Homo sapiens (Human), UniProt P62942). In words: SPR assay, binding affinity to FKBP12. The note with it: single-cycle kinetics. The method, then: (§1) SPR Assay to Determine Binding Affinity to FK506-Binding Proteins (FKBP). N-terminal avi-his6 tagged FKBP fusions to FKBP12, FKBP51 and FKBP52 were expressed in E. coli and purified using standard chromatography. Each protein was subsequently immobilized on a streptavidin chip in a Biacore 8K SPR instrument (GE Healthcare). Using single-cycle kinetics, compound titrations were flowed at 45 uL/min over each surface using 2-minute association and 30-minute dissociation phases in a buffer containing 50 mM Tris pH 7.5/150 mM NaCl/0.01% Tween 20/1 mM DTT/2% DMSO. The data was fit using low molecular weight (LMW) single-cycle kinetics. The equilibrium dissociation constants (KD) are reported. […]

A further experiment addresses FKBP52 (Homo sapiens (Human), UniProt Q02790). In words: SPR assay, binding affinity to FKBP52. Particulars: single-cycle kinetics. As for the experimental part: as §1
In experiment [2] the test system is S6K1 (Thr389) phosphorylation (mTORC1 activity) in WT 293T cells. The experiment is described as follows: S6K1 (Thr389) phosphorylation ELISA in wild-type 293T cells. It counts as cell-based. Particulars: 2 h, relative to DMSO. As for the experimental part: WT, FKBP12 knock-down and FKBP12 knock-out 293T cells were plated at a density of 30,000 cells per well in poly-D-Lysine coated 96-well plates (Corning, #354461) in Dulbecco's modified Eagle's medium (ThermoFisher, #11995-065) supplemented with 10% fetal bovine serum (ThermoFisher, #16140-071). Cells were incubated at 37° C., 5% CO2 for 48 hours until they reached ˜80% confluence. […] Media supplemented with blank Dimethyl sulfoxide (DMSO) was used as a control for both compounds. Phosphorylated amounts of S6K1 (Thr389) were detected by a sandwich ELISA kit (Cell signaling, #7063C) following the manufacture's protocol.
S6K1 is a downstream target of mTORC1 and phosphorylation of its rapalog-sensitive Thr389 site is used as a functional readout of mTORC1 activity. Lee, C. H., Inoki, K. and Guan, K. L. (2007). mTOR pathway as a target in […]. Annu. Rev. Pharmacol. Toxicol. 47. 443-467. […] In FKBP12 knock-out cells. […] Such specificity of Example 2 to FKBP12 may facilitate targeting cells and tissues with relatively high levels of FKBP12 expression, while avoiding (or minimizing) side effects in the tissues where FKBP12 is weakly expressed.

Experiment [3] concerns S6K1 (Thr389) phosphorylation (mTORC1 activity) in FKBP12 knock-out 293T cells. In words: S6K1 (Thr389) phosphorylation ELISA in FKBP12 knock-out 293T cells. It is filed as cell-based. Particulars: 2 h, relative to DMSO.
Experiment [4] concerns S6K1 (Thr389) phosphorylation (mTORC1 activity) in FKBP12 knock-down 293T cells. The experiment is described as follows: S6K1 (Thr389) phosphorylation ELISA in FKBP12 knock-down 293T cells. The note with it: 2 h, relative to DMSO. It is filed as cell-based.

Chain of FKBP12 (P62942 whole entry, the tested form may be a part): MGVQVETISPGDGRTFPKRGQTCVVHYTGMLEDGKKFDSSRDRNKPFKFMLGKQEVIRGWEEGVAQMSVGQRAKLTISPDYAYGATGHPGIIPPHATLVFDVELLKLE
Chain of FKBP52 (Q02790 whole entry): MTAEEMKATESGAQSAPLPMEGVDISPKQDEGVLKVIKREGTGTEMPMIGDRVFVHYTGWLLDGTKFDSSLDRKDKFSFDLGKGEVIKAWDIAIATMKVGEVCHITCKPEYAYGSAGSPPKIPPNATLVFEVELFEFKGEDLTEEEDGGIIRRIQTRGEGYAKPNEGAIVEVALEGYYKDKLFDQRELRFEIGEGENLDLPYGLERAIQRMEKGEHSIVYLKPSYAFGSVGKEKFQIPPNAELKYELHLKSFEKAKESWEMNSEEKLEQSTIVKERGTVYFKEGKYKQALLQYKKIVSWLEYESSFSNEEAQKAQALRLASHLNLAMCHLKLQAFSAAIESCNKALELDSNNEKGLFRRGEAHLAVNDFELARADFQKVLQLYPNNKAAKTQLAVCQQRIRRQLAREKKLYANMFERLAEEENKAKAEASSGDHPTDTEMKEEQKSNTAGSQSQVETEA

Molecule `CO[C@@H]1C[C@H](C[C@@H](C)[C@@H]2CC[C@H](C)/C=C(\C)[C@@H](O)[C@@H](OC)C(=O)[C@H](C)C[C@H](C)/C=C/C=C/C=C(\C)C(N3CCN(CCO)C3=O)C[C@@H]3CC[C@@H](C)[C@@](O)(O3)C(=O)C(=O)N3CCCC[C@H]3C(=O)O2)CC[C@H]1O` (single isomer, unassigned) [Example 5] registered an IC50 in experiment [1] (Mus musculus, 2 h) of 153 nM.

In experiment [1] (Mus musculus, 2 h), `CO[C@@H]1C[C@H](C[C@@H](C)[C@@H]2CC[C@H](C)/C=C(\C)[C@@H](O)[C@@H](OC)C(=O)[C@H](C)C[C@H](C)/C=C/C=C/C=C(\C)C(N3CCS3(=O)=O)C[C@@H]3CC[C@@H](C)[C@@](O)(O3)C(=O)C(=O)N3CCCC[C@H]3C(=O)O2)CC[C@H]1O` (single isomer, unassigned) [Example 6, C16-(1,1-dioxido-1,2-thiazetidin-2-yl)-C32-deoxo-rapamycin] returned a 50% inhibitory concentration (IC50) of 0.17 nM.

`CO[C@@H]1C[C@H](C[C@@H](C)[C@@H]2CC[C@H](C)/C=C(\C)[C@@H](O)[C@@H](OC)C(=O)[C@H](C)C[C@H](C)/C=C/C=C/C=C(\C)C(N3CCS3(=O)=O)C[C@@H]3CC[C@@H](C)[C@@](O)(O3)C(=O)C(=O)N3CCCC[C@H]3C(=O)O2)CC[C@H]1O` (single isomer, unassigned) [Example 7, C16-(1,1-dioxido-1,2-thiazetidin-2-yl)-C32-deoxo-rapamycin] gave an IC50 in experiment [1] of 0.3 nM.

As to `CO[C@@H]1C[C@H](C[C@@H](C)[C@@H]2CC[C@H](C)/C=C(\C)[C@@H](O)[C@@H](OC)C(=O)[C@H](C)C[C@H](C)/C=C/C=C/C=C(\C)C(N3CCS3(=O)=O)C[C@@H]3CC[C@@H](C)[C@@](O)(O3)C(=O)C(=O)N3CCCC[C@H]3C(=O)O2)CC[C@H]1OCCO` (single isomer, unassigned) [Example 8, C16-(1,1-dioxido-1,2-thiazetidin-2-yl)-C32-deoxo-C40-(2-hydroxyethoxy)-rapamycin], in experiment [1], the IC50 came to 0.328 nM.

For the molecule `CO[C@@H]1C[C@H](C[C@@H](C)[C@@H]2CC[C@H](C)/C=C(\C)[C@@H](O)[C@@H](OC)C(=O)[C@H](C)C[C@H](C)/C=C/C=C/C=C(\C)C(N3CCS3(=O)=O)C[C@@H]3CC[C@@H](C)[C@@](O)(O3)C(=O)C(=O)N3CCCC[C@H]3C(=O)O2)CC[C@H]1OCCO` (single isomer, unassigned) [Example 9, C16-(1,1-dioxido-1,2-thiazetidin-2-yl)-C32-deoxo-C40-(2-hydroxyethoxy)-rapamycin], the 50% inhibitory concentration (IC50) in experiment [1] was 1.45 nM.

Take `CO[C@@H]1C[C@H](C[C@@H](C)[C@@H]2CC[C@H](C)/C=C(\C)[C@@H](O)[C@@H](OC)C(=O)[C@H](C)C[C@H](C)/C=C/C=C/C=C(\C)C(N3CCS3(=O)=O)C[C@@H]3CC[C@@H](C)[C@@](O)(O3)C(=O)C(=O)N3CCCC[C@H]3C(=O)O2)CC[C@H]1OP(C)(C)=O` (single isomer, unassigned) [Example 10, C16-(1,1-dioxido-1,2-thiazetidin-2-yl)-C32-deoxo-C40-dimethylphosphinyl-rapamycin]: the dissociation constant Kd turned out to be 1.6 nM on FKBP12 and 176 nM on FKBP52.

In experiment [1] (Mus musculus, 2 h), `CO[C@@H]1C[C@H](C[C@@H](C)[C@@H]2CC[C@H](C)/C=C(\C)[C@@H](O)[C@@H](OC)C(=O)[C@H](C)C[C@H](C)/C=C/C=C/C=C(\C)C(N3CCS3(=O)=O)C[C@@H]3CC[C@@H](C)[C@@](O)(O3)C(=O)C(=O)N3CCCC[C@H]3C(=O)O2)CC[C@@H]1n1cnnn1` (single isomer, unassigned) [Example 12] gave an IC50 of 0.374 nM.

Take `CO[C@@H]1C[C@H](C[C@@H](C)[C@@H]2CC[C@H](C)/C=C(\C)[C@@H](O)[C@@H](OC)C(=O)[C@H](C)C[C@H](C)/C=C/C=C/C=C(\C)C(N3CCS3(=O)=O)C[C@@H]3CC[C@@H](C)[C@@](O)(O3)C(=O)C(=O)N3CCCC[C@H]3C(=O)O2)CC[C@@H]1n1cnnn1` (single isomer, unassigned) [Example 13]: the midpoint of inhibition in experiment [1], the IC50, lay at 0.656 nM.

As to `CO[C@@H]1C[C@H](C[C@@H](C)[C@@H]2CC[C@H](C)/C=C(\C)[C@@H](O)[C@@H](OC)C(=O)[C@H](C)C[C@H](C)/C=C/C=C/C=C(\C)C(N3CCCS3(=O)=O)C[C@@H]3CC[C@@H](C)[C@@](O)(O3)C(=O)C(=O)N3CCCC[C@H]3C(=O)O2)CC[C@H]1OP(C)(C)=O` (single isomer, unassigned) [Example 14, C16-(1,1-dioxidoisothiazolidin-2-yl)-C32-deoxo-C40-dimethylphosphinyl-rapamycin], the Kd was found to be 16 nM at FKBP12 and 542 nM at FKBP52. This molecule also registered a half-maximal inhibitory concentration (IC50) in experiment [1] (Mus musculus, 2 h) of 7.77 nM.

Molecule `CO[C@@H]1C[C@H](C[C@@H](C)[C@@H]2CC[C@H](C)/C=C(\C)[C@@H](O)[C@@H](OC)C(=O)[C@H](C)C[C@H](C)/C=C/C=C/C=C(\C)C(N3CCCS3(=O)=O)C[C@@H]3CC[C@@H](C)[C@@](O)(O3)C(=O)C(=O)N3CCCC[C@H]3C(=O)O2)CC[C@H]1OP(C)(C)=O` (single isomer, unassigned) [Example 15, C16-(1,1-dioxidoisothiazolidin-2-yl)-C32-deoxo-C40-dimethylphosphinyl-rapamycin] gave an IC50 in experiment [1] (Mus musculus, 2 h) of 3.2 nM.

With `CO[C@@H]1C[C@H](C[C@@H](C)[C@@H]2CC[C@H](C)/C=C(\C)[C@@H](O)[C@@H](OC)C(=O)[C@H](C)C[C@H](C)/C=C/C=C/C=C(\C)[C@H](N3CCCS3(=O)=O)C[C@@H]3CC[C@@H](C)[C@@](O)(O3)C(=O)C(=O)N3CCCC[C@H]3C(=O)O2)CC[C@H]1OCCO` [Example 16], the figures for the Kd at FKBP12 and at FKBP52 were 35 nM and 4070 nM, respectively.

For `CO[C@H]1C[C@@H]2CC[C@@H](C)[C@@](O)(O2)C(=O)C(=O)N2CCCC[C@H]2C(=O)O[C@H]([C@H](C)C[C@@H]2CC[C@@H](OCCO)[C@H](OC)C2)CC(=O)[C@H](C)/C=C(\C)[C@@H](O)[C@@H](OC)C(=O)[C@H](C)C[C@H](C)/C=C/C=C/C=C/1C` [RAD001, everolimus, reference compound], the figures for the dissociation constant (Kd) at FKBP12 and on FKBP52 were 500 nM and 1760 nM, respectively. For the same molecule, in experiment [2], the “inhibition of S6K1 (Thr389)” value was about 80%. Moreover, in experiment [3], the “inhibition of S6K1 (Thr389) phosphorylation” value is recorded as over 60%. In experiment [4], the “maximum inhibition of S6K1 (Thr389)” value is recorded as about 70%.
